Data published in patent US10137171B2, “Methods of treatment using a pentapeptide derived from the C-Terminus of Glucagon-Like Peptide 1 (GLP-1)” (The General Hospital Corporation, priority 2011, dated 2018).
Where no end group is shown, it is not given here.

Tests used:
[1] = Plasma peptide concentrations by LC-MS after continuous infusion; format: in vivo, mouse
Experimental: (§1) Mice were given single i.v. injections of the propeptide, GLP-1(9-36)amide and blood samples were taken at times 2, 5, and 10 min. Plasma was assayed for the presence of GLP-1(9-36)amide, GLP-1(28-36)amide, and GLP-1(32-36)amide by electron spray mass spectrometry (ES-MS. Pooled plasma samples collected after a 28 day continuous infusion of GLP-1(9-36)amide or GLP-1(28-36)amide in mice were assayed for peptide concentrations by liquid chromatography mass spectrometry (LC-MS).

[2] = tested on: insulin-resistant isolated mouse hepatocytes; assay: Glucose production assay in isolated hepatocytes; format: cell-based; details: stimulated by cAMP/dexamethasone/lactate; basal glucose production not suppressed
Text: FIG. 8 is a bar graph showing suppression of glucose production by the pentapeptide GLP-1(32-36)amide (LVKGRamide (SEQ ID NO:1)) in insulin-resistant hepatocytes. Mice (male, C57bl/6) from 12-19 weeks of age were fasted overnight (16 hrs) and primary hepatocytes were isolated using a collagen and perfusion gradient purification. Cells were first seeded using a Dulbecco's modified Eagle's medium (DMEM) supplemented with 10% FBS, 1 g/L glucose, 2 mmol/1 sodium pyruvate, 1 micromol/L dexamethasone, and 0.1 micromol/L insulin, and later maintained in DMEM with 0.2% BSA, 1 g/L glucose, 0.1 micromol/L dexamethasone, and lnmol/L insulin. […] The readings were then normalized to total protein content determined from whole-cell lysates. […]
Primary hepatocytes (2×10^5 cells per well in twelve-well plates) were pre-treated with GLP-1(32-36)amide for 1 hour followed by the stimulation of insulin resistance by the addition of cAMP (10 microM)/dexamethasone ([…])/sodium lactate (2 mM) in glucose-free DMEM without phenol red. […] The readings were then normalized to total protein content determined from whole-cell lysates.

diet-induced obese mice = assay: Intraperitoneal glucose tolerance test (ipGTT); format: in vivo, mouse; details: glucose 2 g/kg BW ip, overnight fasted, VHFD 24 weeks
Experimental: FIGS. 5C-D are a pair of line graphs Plasma glucose levels (FIG. 5C) and (FIG. 5D) Plasma insulin levels after an intraperitoneal glucose administration ([…] BW ip) in overnight fasted mice fed in VHFD for 24-weeks and 16-weeks of continuous infusions of vehicle or GLP-1(32-36)amide. ***p<4E-03 vehicle vs. GLP-1(32-36)amide, *p<0.01 vehicle vs. GLP-1(32-36)amide, **p<0.004 vehicle vs. GLP-1(32-36)amide, *****p<1.7E-05 vehicle vs. GLP-1(32-36)amide, ****p<6.7 E-04 vehicle vs. GLP-1(32-36)amide.
Mice were maintained in a normal light/dark cycle according to the standard protocols of the MGH Animal Care and Use Committee. Mice were tested with age matched or litter mate controls and 6 mice per group are required. […] The following morning the mice were prepared for the glucose tolerance test: animals were weighed, the tail was nicked with a fresh razor blade by a horizontal cut of the very end, ˜35 to 50 microliters of blood is massaged from the tail to an eppendorf tube which is immediately placed on ice, baseline blood glucose is measured by the glucose oxidase method using a Glucometer Elite glucometer, and 2 grams/kg body weight of 20% D-glucose is drawn up in a Beckton Dickenson D 29 gage ½″ insulin syringe (one unit of D-glucose for every gram of body weight). Animals were then transferred to individually labeled 1000 cc cardboard soup cups with the lid liners removed.
Following animal preparation, glucose was injected into the intraperitoneal cavity. At 10, 20, 30, 60, 120, and 140 minutes blood glucose is sampled from the tail of each mouse by gently massaging a small drop of blood onto the glucometer strip. Glucose injections and blood glucose sampling is timed to take approximately the same amount of time per animal (i.e. 25 animals are injected in 12 minutes and blood glucose sampling of those same 25 animals should also take about 12 minutes) so that the sample times are accurate for each animal.

[3] = Mass spectrometry of mouse plasma after i.v. injection of GLP-1(9-36)amide; format: in vivo
Experimental: FIG. 7B is a line graph showing the results of experiments involving intravenous push injection of GLP-1(9-36)amide, 32-36 amide, and […] into mice, collecting blood plasma at 2, 5, and 10 min, and analyzing the peptide profiles by liquid chromatography-mass spectrometry (LC-MS). Relative amounts of peptides at times indicated are shown. Y-axis, arbitrary units
as §1

[4] = pooled mouse plasma after four weeks infusion

Substance | level at time molar at 672 h ([1]; mouse, plasma, 2.0 mg/ml in the osmopump, four weeks infusion, read-out: plasma levels of GLP-1(28-36)amide in mice infused with GLP-1(28-36)amide) | plasma levels of GLP-1(28-36)amide in mice infused with GLP-1(9-36)amide [1, 4] | glucose production (formation) [2] | glycemic response in ipGTT (diet-induced obese mice; 16 weeks infusion (FIG. 5C)) | insulin response in ipGTT (diet-induced obese mice; 16 weeks infusion (FIG. 5D)) | plasma concentration of GLP-1(9-36)amide during its continuous infusion [1, 4] | presence of nona and pentapeptides in plasma after injection of GLP-1(9-36)amide ([3]; mouse plasma 2 min after i.v. injection, mass spectrometry) | conversion of GLP-1(9-36)amide to the nona and pentapeptides in the circulation ([3]; mouse plasma, i.v. pulse injection)
FIAWLVKGR-NH2 [GLP-1(28-36)amide, FIAWLVKGRamide] | ~0.24 nM | ~0.1 nM | dose-dependently suppressed | normal glycemic response | strong insulin response |  |  | 
GLP-1(9-36)amide |  |  |  |  |  | not detectable | readily detected | rapidly converted
